The text below walks through data of PubChem BioAssay (NCI).

Among the test systems are TK-10 renal; SK-MEL-28 melanoma; U251 CNS; UACC-257 melanoma; HOP-92 NSCLC; M14 melanoma; NCI/ADR-RES ovarian; HOP-62 NSCLC; RXF 393 renal; IGROV1 ovarian; K-562 leukemia; SNB-19 CNS; UACC-62 melanoma; OVCAR-4 ovarian; T-47D breast; KM12 colon.
What all share (test): NCI anticancer screen, dose series, 48 h

The structures appear in SMILES notation.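 48-hour exposure; five concentrations; linearly interpolated endpoints. TGI is the concentration that stops growth completely.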 Bounds are passed on as bounds.

As for `S=c1[nH]nc(NNc2ccccc2)n1Nc1ccccc1`, the TGI in the experiment on TK-10 renal was greater than 100 µM; in the experiment on SK-MEL-28 melanoma, greater than 100 µM; with U251 CNS, greater than 83.9 µM; with UACC-257 melanoma, greater than 69.3 µM; with HOP-92 NSCLC it was greater than 79.9 µM; in the experiment with M14 melanoma, greater than 100 µM. Further, the TGI with NCI/ADR-RES ovarian, in the experiment with HOP-62 NSCLC, in the experiment on RXF 393 renal, in the experiment with IGROV1 ovarian, with K-562 leukemia and with SNB-19 CNS was greater than 100 µM throughout. For the same compound, the TGI was greater than 100 µM in the experiment with UACC-62 melanoma, greater than 100 µM in the experiment with OVCAR-4 ovarian, greater than 59.6 µM in the experiment with T-47D breast and greater than 100 µM with KM12 colon.

With `Cn1c2ccccc2c(=O)c2[nH]c3ccccc3c21`, the TGI with TK-10 renal was greater than 100 µM; in the experiment with SK-MEL-28 melanoma, 59.5 µM; in the experiment on U251 CNS it was greater than 100 µM; with UACC-257 melanoma, greater than 100 µM; in the experiment with HOP-92 NSCLC, greater than 100 µM; in the experiment with M14 melanoma it was greater than 100 µM. Moreover, the TGI in the experiment with NCI/ADR-RES ovarian, with HOP-62 NSCLC, in the experiment on RXF 393 renal, in the experiment on IGROV1 ovarian, in the experiment on K-562 leukemia and with SNB-19 CNS was greater than 100 µM each time. Further, the TGI in the experiment on UACC-62 melanoma, in the experiment with OVCAR-4 ovarian, in the experiment with T-47D breast and in the experiment with KM12 colon was greater than 100 µM in each case.

In the case of `O=C1c2ccccc2C(=O)c2oc(Br)cc21`, the TGI stood at 6.15 µM with TK-10 renal; 0.934 µM in the experiment on SK-MEL-28 melanoma; 2.64 µM in the experiment on U251 CNS; 0.784 µM with UACC-257 melanoma; 4.23 µM in the experiment on HOP-92 NSCLC; 0.311 µM with M14 melanoma. In addition, the TGI was 5.44 µM in the experiment on NCI/ADR-RES ovarian; 4.05 µM in the experiment with HOP-62 NSCLC; 2.87 µM in the experiment on RXF 393 renal; 3.08 µM in the experiment with IGROV1 ovarian; 4.77 µM in the experiment with K-562 leukemia; 2.87 µM with SNB-19 CNS. Moreover, the TGI with UACC-62 melanoma was determined as 1.84 µM; in the experiment on OVCAR-4 ovarian it was 3.55 µM; with T-47D breast, 3.6 µM; in the experiment with KM12 colon, 3.2 µM.

`CC1=NN=C(N)NC1=CC(Sc1ccc(Cl)cc1)c1c(O)ccc2ccccc12` (configuration not stated): the TGI in the experiment with TK-10 renal was greater than 100 µM; in the experiment with SK-MEL-28 melanoma, greater than 62.6 µM; in the experiment with U251 CNS, 76.8 µM; with UACC-257 melanoma, greater than 87.1 µM; with HOP-92 NSCLC, greater than 78.5 µM; with M14 melanoma it was 36.2 µM. The TGI is 71.9 µM in the experiment on NCI/ADR-RES ovarian; 57.7 µM in the experiment with HOP-62 NSCLC; 20.3 µM in the experiment with RXF 393 renal; 37.3 µM with IGROV1 ovarian; greater than 100 µM in the experiment with K-562 leukemia; greater than 74.9 µM with SNB-19 CNS. Also, the TGI was 25.9 µM in the experiment on UACC-62 melanoma, greater than 64.7 µM in the experiment with OVCAR-4 ovarian, 58.9 µM in the experiment with T-47D breast and 36.9 µM with KM12 colon.

For `COC(=O)c1c(-c2ccccc2)c2sc3ccccc3n2c1N`, the TGI in the experiment with TK-10 renal is greater than 100 µM; with SK-MEL-28 melanoma, greater than 100 µM; with U251 CNS it was greater than 100 µM; in the experiment with UACC-257 melanoma, greater than 100 µM; in the experiment on HOP-92 NSCLC it was 98 µM; with M14 melanoma, greater than 100 µM. In addition, the TGI was greater than 100 µM in the experiment with NCI/ADR-RES ovarian; greater than 100 µM in the experiment with HOP-62 NSCLC; 55.1 µM in the experiment on RXF 393 renal; greater than 100 µM in the experiment on IGROV1 ovarian; greater than 100 µM with K-562 leukemia; greater than 100 µM with SNB-19 CNS. The TGI with UACC-62 melanoma was greater than 100 µM; in the experiment with OVCAR-4 ovarian, greater than 100 µM; in the experiment on T-47D breast, 87.5 µM; with KM12 colon, 88.8 µM.

`c1ccc2cc3c(cc2c1)nc1ccccn13`: the TGI with TK-10 renal, in the experiment on SK-MEL-28 melanoma, in the experiment on U251 CNS, in the experiment with UACC-257 melanoma, in the experiment with HOP-92 NSCLC and in the experiment with M14 melanoma was greater than 100 µM in each case. Also, the TGI in the experiment with NCI/ADR-RES ovarian, in the experiment with HOP-62 NSCLC, in the experiment with RXF 393 renal, with IGROV1 ovarian, with K-562 leukemia and in the experiment with SNB-19 CNS was greater than 100 µM throughout. Further, the TGI with UACC-62 melanoma, in the experiment with T-47D breast and with KM12 colon was greater than 100 µM throughout.

Regarding `COc1cc(C2C(Cl)C(=O)N2NC(=O)c2ccc(NC(C)=O)cc2OC)ccc1O` (configuration not stated), the TGI with SK-MEL-28 melanoma is 97.8 µM; in the experiment with HOP-92 NSCLC, 31.3 µM; in the experiment on M14 melanoma, 33.9 µM; in the experiment on NCI/ADR-RES ovarian, greater than 100 µM; in the experiment with RXF 393 renal, 47.4 µM; in the experiment with IGROV1 ovarian it was 79.7 µM. In addition, the TGI was 55.2 µM in the experiment with K-562 leukemia; 47.4 µM with SNB-19 CNS; 36.2 µM in the experiment with UACC-62 melanoma; greater than 100 µM in the experiment with OVCAR-4 ovarian; 52.2 µM with T-47D breast; 68 µM in the experiment with KM12 colon.

As to `C/C=C/[C@H](O[Si](C)(C)C(C)(C)C)[C@@H](O)/C=C/C(=O)OCC`, the TGI with TK-10 renal turned out to be 75.6 µM; in the experiment on SK-MEL-28 melanoma it was 32.4 µM; with U251 CNS it was 35.5 µM; in the experiment with UACC-257 melanoma it was 40.8 µM; in the experiment with HOP-92 NSCLC, 46.3 µM; with NCI/ADR-RES ovarian, 76.8 µM. The TGI in the experiment on HOP-62 NSCLC was 39.8 µM; in the experiment on RXF 393 renal, 43.1 µM; in the experiment on IGROV1 ovarian, 50.4 µM; with K-562 leukemia, 43.9 µM; in the experiment on SNB-19 CNS, 28.7 µM; in the experiment on UACC-62 melanoma, 38.8 µM. The TGI in the experiment with OVCAR-4 ovarian amounted to 27.8 µM; in the experiment on T-47D breast, 89.8 µM; in the experiment on KM12 colon, 32.3 µM.

As for `CCOC(=O)c1c(N2CCCC2)[nH]c(=O)c(C(c2cccs2)c2c(O)c(C(=O)OCC)c(N3CCCC3)[nH]c2=O)c1O`, the TGI with TK-10 renal, in the experiment on SK-MEL-28 melanoma, with U251 CNS, with UACC-257 melanoma, in the experiment on HOP-92 NSCLC and with M14 melanoma was greater than 100 µM each time. Moreover, the TGI with NCI/ADR-RES ovarian, with HOP-62 NSCLC, with RXF 393 renal, with K-562 leukemia, in the experiment on SNB-19 CNS and in the experiment with UACC-62 melanoma was greater than 100 µM throughout. Moreover, the TGI with OVCAR-4 ovarian, in the experiment on T-47D breast and in the experiment on KM12 colon was greater than 100 µM throughout.
